In US8088567B2, “Human immortalised neural precursor cell line” (NsGene A/S, priority 2005, dated 2012):
“Also recorded” adds a separate entry of the source.

Legend:
[1] = tested on: tomato kinase (ZG561) expressing NGC-407 cells; experiment: Cell killing effect of AZT, XTT viability assay, tomato kinase expressing cells; format: cell-based, human
Protocol: The constructed pLHCXZ (Clontech) plasmid vector pZG561 (coding for a Tomato Thymidine kinase I with a C-terminal deletion of 26 amino acids, WO 03/100045) and pVPack-GP (Stratagene) plus pVPack-VSV-G (Stratagene) were transfected into the packaging cells using LipofectAMINE PLUS (Invitrogen-Life Technologies, Inc.) according to the protocol provided by the supplier. The medium from the transfected cells, cultured in DMEM (Invitrogen), was collected 48 and 72 hours post transfection, filtered through a 0.45 μm filter, pelleted by ultracentrifugation (50.000g, 90 min at 4° C.) and dissolved in DMEM (Invitrogen). The titer of the virus was determined by reverse transcriptase assay. […]
The day before transduction, 1×10^6 cells/well were seeded in 6-well plates. […] Subsequently cells were ready for experiments.
Exponentially growing NGC-407 wt and tomato kinase (ZG561) expressing cells were plated at a density of 5.000 cells/well in poly-L-lysine coated 96-well plates in 100 μl conditioned medium and incubated 37° C. in a humidified incubator with a gas phase of 5% CO2. […] The chemo resistance of cultured cells was monitored by the surviving cell fraction as a function of the drug concentration. Viability of cells was determined via the colorimetric XTT assay (XTT kit II-Roche, cat no. 1465015). […] The absorbance at 450 and 690 nm was determined using an ELISA plate reader (Ascent, ThermoLab). […]

NGC-407 wt cells = experiment: Cell killing effect of AZT, XTT viability assay, parental cells; format: cell-based, human; settings: parental NGC-407 cell line, 120 hours drug exposure
Protocol: Cell culture The human neuronal progenitor cell line NGC-407 was cultured in DMEM/F12 (Gibco #31331-028) conditioned with Human Serum Albunim (HSA) (Sigma #A 1653), N2 (Gibco #17502-048), B27 (Gibco #17504-044), Glucose (Sigma #G8769), bFGF (R&D Systems #233-FB), EGF (R& Systems #236-EG), MEM NEAA, x100 (Gibco #11140-035), HEPES (Gibco #15630-056), in poly-L-lysine (Sigma #P4832) coated flasks/Plates (CM-Lab, Denmark). Cells were grown at 37° C. and 5% CO2 in a humidified incubator.
Exponentially growing NGC-407 wt and tomato kinase (ZG561) expressing cells were plated at a density of 5.000 cells/well in poly-L-lysine coated 96-well plates in 100 μl conditioned medium and incubated 37° C. in a humidified incubator with a gas phase of 5% CO2. After 48 hours, medium was replaced with medium containing varying concentrations of AZT starting at 20 mM and down. […] The chemo resistance of cultured cells was monitored by the surviving cell fraction as a function of the drug concentration. Viability of cells was determined via the colorimetric XTT assay (XTT kit II-Roche, cat no. 1465015). […] The absorbance at 450 and 690 nm was determined using an ELISA plate reader (Ascent, ThermoLab). The IC50 value (50% inhibition concentration) of the investigated compound was calculated as the mean value of each experiment using SigmaPlot® (Dyrberg Trading, DK).

[2] = tested on: NGC-407 & U343MGa-cl 2:6 cells; experiment: Gap junction communication by calcein dye transfer, NGC-407 to U343MGa-cl 2:6; format: cell-based, human; settings: PB 0.5 mM donor, 4 mM recipient for 72 hours, 4 hours co-culture at 0.5 mM
Protocol: Donor human embryonic neural stem cells (NGC-407) and recipient human glioblastoma cells (U343MGa-cl 2:6) were grown each in 2 separate 35 mm Petri dishes (1×10^5/dish). For NGC-407 cells the plates were poly-L-lysine (Sigma) coated and the medium was DMEM/F12 1:1 with glutamax I (Invitrogen) containing 40 ng/ml bFGF2 (R&D Systems), 20 ng/ml rhEGF, 1× N2 supplement, 1× non-essential amino acid, 5 mM HEPES buffer solution (from Invitrogen), 0.5% human serum albumin and 6 g/L D-glucose (from Sigma). The recipient cells were grown in DMEM containing 10% FBS, 100 units/ml penicillin and 100 μg/ml streptomycin (from Invitrogen). When the cells were approx. 60% confluent, treatment with 0 & 0.5 mM 4-Phenyl Butyrate (PB) for donor cells and 0 & 4 mM PB for recipient cells was started and continued for 72 hours. The donor cells were then double labelled by incubating with 1 ml of cell medium containing 10 μM Dil and 5 μM Calcein-AM (Molecular Probes) for 20 min. After aspiration of the dye containing medium the cells were washed 4-5 times with pure medium and then with PBS to get rid of free dye. After a very brief trypsinization the cells were centrifuged and resuspended in co-culture medium (donor cell medium including 0.5% FBS). The medium of recipient cells was replaced by co-culture medium and 5×10^4 donor cells were added to one recipient plate. […]

NGC-407 cells = experiment: Gap junction communication by fluorescent dye transfer between NGC-407 cells; format: cell-based, human; settings: differentiating and proliferating conditions
Protocol: (§1) This was analyzed semi-quantitatively/qualitatively by using fluorescent dye transfer techniques. It is evident that the GJC is enhanced by 4-PB both under differentiating and proliferating conditions in vitro. This is relevant since the in vivo environment may present transplanted cells with conditions that stimulate neither differentiation nor proliferation.

U87MG xenograft tumor = experiment: In vivo migration of GFP-expressing NGC-407 cells in nude rat model of human glioblastoma multiforme; set-up: species or system nude rats; settings: PB 250 mg/kg intraperitoneally twice daily, 2 weeks
Protocol: 8-9 weeks old athymic nude male rats (rnu/rnu; Harlan, Germany) with an average weight of 200 g were used in our human glioblastoma multiforme xenograft model. They were housed in a group of 3 in standardized big cages in 50-70% relative humidity and 20°-24° C. temperature with 12/12 day/night variation. Food (Ad libitum), water and other materials used for these immunocompromised animals were autoclaved before use. Animals were anesthesitized by isoflurane inhalation and the head was fixed in a stereo tactic apparatus. Under microscopic guidance a burr hole of 1 mm diameter was made over the right hemisphere, 2 mm right lateral to the bregma. Using a Hamilton syringe of 5 μl volume 1.5×10^5 U87MG cells in 3 μl volume were slowly injected through the burr hole at a depth of 3.5 mm from the surface to reach the corpus callosum.
2×10^6 neural progenitors (NGC-407) recombinantly expressing green fluorescent protein (GFP), were plated in a 100 mm Petri dish and were grown as neurospheres for 48 hours. […]
Histopathological analysis of the sections was carried out by haematoxylin and eosin staining to determine the size and location of the implants. […] Immunohistochemically the tumor location was determined by correlating with the histological analysis and by the cell density while the sections were counter-stained with hoechst.

[3] = tested on: NGC-407 cells and U87 gioblastoma cells; experiment: Gap junction communication by fluorescent dye transfer, NGC-407 and U87; format: cell-based, human; settings: differentiating and proliferating conditions
Protocol: as §1

transfected cell line = settings: cited from earlier work

Cc1cn([C@H]2C[C@H](N=[N+]=[N-])[C@@H](CO)O2)c(=O)[nH]c1=O [AZT]
IC50 ([1]; Hygromycin selected ZG561 (tomato TK) NGC-407 cells, 120 hours drug exposure, XTT): 0.051 mM
Sensitisation of NGC-407 cells towards AZT by Tomato Thymidine kinase ([1]; ZG561 cells versus parental cells): 230 fold
IC50 (NGC-407 wt cells): 11.8 mM

O=C(O)CCCc1ccccc1 [4-PB, 4-Phenyl Butyrate]
gap junction communication NGC-407 to U343MGa-cl 2:6 (calcein transfer) [2]: significantly enhanced
gap junction communication NGC-407 to U343MGa-cl 2:6 (calcein transfer) ([2]; listed as PB): number of green recipient cells has also been significantly increased
gap junction communication (GJC) between NGC-407 cells (NGC-407 cells): enhances the gap junction communication
GFP staining / GFP positive cells around and inside the tumor (U87MG xenograft tumor): enhanced the GFP staining; also recorded: increases the number of GFP positive cells
gap junction communication (GJC) between NGC-407 cells and U87 gioblastoma cells [3]: enhances the gap junction communication

B1: B5: mutant Drosophila melanogaster deoxyribonucleoside kinase variant, SEQ ID NO 5 (protein)
chain: MAEAASCARKGTKYAEGTQPFTVLIEGNIGSGKTTYLNHFEKYKNDICLLTEPVEKWRNVNGVNLLELMYKDPKKWAMPFQSYATLTMLQSHTAPTNKKLKIMERSIFSARYCFVENMRRNGSLEQGMYNTLEEWYKFIEESIHVQADLIIYLRTSPEVAYERIRQRARSEESCVPLKYLQELHELHEDWLIHQRRPQSCKVLVLDADLDLENIGTEYQRSESSIFDAISSNQQPSPVPVSPSKRQRVAR
modifications: Drosophila melanogaster
degree of activation for gemcitabine relative to wild type Dm dNK (transfected cell line): approximately 50 times
